Results as given in PubChem BioAssay AID330 (DTP/NCI, 2004).
Values joined by “and” are separate entries in the source; they are usually repeats but may differ in a detail not shown here. Equal values may be shown once. Inconclusive results and toxic doses are left out.

Tested on: P388 leukemia ip, CD2F1 mice, survival T/C
Assay: NCI In Vivo Anticancer Drug Screen. Data for tumor model P388 Leukemia (intraperitoneal) in CD2F1 (CDF1) mice
Conditions: endpoint: median survival time, higher = longer survival
Method in brief: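 Mice carrying the transplanted tumor received test compound or vehicle. Survival was recorded in each group, and the value is the treated-group measurement divided by that of the vehicle-treated control group.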

[1] = dose: 60.0 mg/kg/injection, schedule: Q01DX005 (ip), vehicle: Klucel (hydroxypropylcellulose) (HPC)
[2] = dose: 120.0 mg/kg/injection, schedule: Q01DX005 (ip), vehicle: Klucel (hydroxypropylcellulose) (HPC)
[3] = dose: 240.0 mg/kg/injection, schedule: Q01DX005 (ip), vehicle: Klucel (hydroxypropylcellulose) (HPC)
[4] = dose: 60.0 mg/kg/injection, schedule: Q01DX005 (ip), vehicle: saline with Tween-80
[5] = dose: 120.0 mg/kg/injection, schedule: Q01DX005 (ip), vehicle: saline with Tween-80
[6] = dose: 240.0 mg/kg/injection, schedule: Q01DX005 (ip), vehicle: saline with Tween-80
[7] = dose: 100.0 mg/kg/injection, schedule: Q01DX001 (ip), vehicle: saline with Tween-80
[8] = dose: 200.0 mg/kg/injection, schedule: Q01DX001 (ip), vehicle: saline with Tween-80
[9] = dose: 400.0 mg/kg/injection, schedule: Q01DX001 (ip), vehicle: saline with Tween-80
[10] = dose: 3.12 mg/kg/injection, schedule: Q01DX005 (ip), vehicle: Klucel (hydroxypropylcellulose) (HPC)
[11] = dose: 12.5 mg/kg/injection, schedule: Q01DX005 (ip), vehicle: Klucel (hydroxypropylcellulose) (HPC)
[12] = dose: 25.0 mg/kg/injection, schedule: Q01DX009 (ip), vehicle: saline with Tween-80
[13] = dose: 50.0 mg/kg/injection, schedule: Q01DX009 (ip), vehicle: saline with Tween-80
[14] = dose: 100.0 mg/kg/injection, schedule: Q01DX009 (ip), vehicle: saline with Tween-80
[15] = dose: 200.0 mg/kg/injection, schedule: Q01DX009 (ip), vehicle: saline with Tween-80
[16] = dose: 12.5 mg/kg/injection, schedule: Q01DX005 (ip), vehicle: saline with Tween-80
[17] = dose: 25.0 mg/kg/injection, schedule: Q01DX005 (ip), vehicle: saline with Tween-80
[18] = dose: 50.0 mg/kg/injection, schedule: Q01DX005 (ip), vehicle: saline with Tween-80
[19] = dose: 25.0 mg/kg/injection, schedule: Q01DX009 (ip), vehicle: saline
[20] = dose: 50.0 mg/kg/injection, schedule: Q01DX009 (ip), vehicle: saline
[21] = dose: 100.0 mg/kg/injection, schedule: Q01DX009 (ip), vehicle: saline
[22] = dose: 200.0 mg/kg/injection, schedule: Q01DX009 (ip), vehicle: saline
[23] = dose: 100.0 mg/kg/injection, schedule: Q01DX005 (ip), vehicle: saline with Tween-80
[24] = dose: 200.0 mg/kg/injection, schedule: Q01DX005 (ip), vehicle: saline with Tween-80

## Cn1c2nc(-[n+]3ccc(-c4ccccc4)cc3)nc-2c([O-])n(C)c1=O
dose: 100.0 mg/kg/injection, schedule: Q04DX003 (ip), vehicle: saline
  T/C: 99 % of control
dose: 200.0 mg/kg/injection, schedule: Q04DX003 (ip), vehicle: saline
  T/C: 89 % of control

## CC12CCC3C(CCC4C(C)(C)C(O)CCC34C)(C1)OC2CO (configuration not stated)
dose: 2.25 mg/kg/injection, schedule: Q01DX009 (ip), vehicle: Klucel (hydroxypropylcellulose) (HPC)
  T/C: 104 % of control
dose: 4.5 mg/kg/injection, schedule: Q01DX009 (ip), vehicle: Klucel (hydroxypropylcellulose) (HPC)
  T/C: 108 % of control
dose: 9.0 mg/kg/injection, schedule: Q01DX009 (ip), vehicle: Klucel (hydroxypropylcellulose) (HPC)
  T/C: 104 % of control
dose: 18.0 mg/kg/injection, schedule: Q01DX009 (ip), vehicle: Klucel (hydroxypropylcellulose) (HPC)
  T/C: 118 % of control

## CCOC(=O)C1CN(C(=O)OCC)CCC1NC(C)=O (configuration not stated)
[1]
  T/C: 102 % of control
[2]
  T/C: 96 % of control
[3]
  T/C: 98 % of control

## COc1ccc(C(=O)CCc2cccc(NC(=O)CCl)c2)cc1
[4]
  T/C: 91 % of control
[5]
  T/C: 100 % of control
[6]
  T/C: 102 % of control

## CC1=C(C#N)C(=O)N(C)C(=O)C1(Cl)Cl
dose: 100.0 mg/kg/injection, schedule: Q04DX002 (ip), vehicle: Klucel (hydroxypropylcellulose) (HPC)
  T/C: 98 % of control
dose: 200.0 mg/kg/injection, schedule: Q04DX002 (ip), vehicle: Klucel (hydroxypropylcellulose) (HPC)
  T/C: 98 % of control

## O=[N+]([O-])C1C(O)CSCC1O (configuration not stated)
[7]
  T/C: 104 % of control
[8]
  T/C: 104 % of control
[9]
  T/C: 107 % of control

## CCOC(=O)c1c(C)c2c(n1Cc1ccccc1)CCCC2=O
dose: 100.0 mg/kg/injection, schedule: Q04DX003 (ip), vehicle: Klucel (hydroxypropylcellulose) (HPC)
  T/C: 99 % of control
dose: 200.0 mg/kg/injection, schedule: Q04DX003 (ip), vehicle: Klucel (hydroxypropylcellulose) (HPC)
  T/C: 97 % of control
dose: 400.0 mg/kg/injection, schedule: Q04DX003 (ip), vehicle: Klucel (hydroxypropylcellulose) (HPC)
  T/C: 98 % of control

## O=C(O)c1cccc(C(=O)O)c1S(=O)(=O)c1ccccc1
[7]
  T/C: 99 % of control
[8]
  T/C: 98 % of control
[9]
  T/C: 95 % of control

## O=S1(=O)CS(=O)(=O)OCCO1
[10]
  T/C: 124 % of control
dose: 6.25 mg/kg/injection, schedule: Q01DX005 (ip), vehicle: Klucel (hydroxypropylcellulose) (HPC)
  T/C: 155 % of control
dose: 9.0 mg/kg/injection, schedule: Q01DX005 (ip), vehicle: Klucel (hydroxypropylcellulose) (HPC)
  T/C: 162 % of control and 165 % of control
[11]
  T/C: 216 % of control
dose: 14.0 mg/kg/injection, schedule: Q01DX005 (ip), vehicle: Klucel (hydroxypropylcellulose) (HPC)
  T/C: 191 % of control (2×) and 200 % of control
dose: 25.0 mg/kg/injection, schedule: Q01DX005 (ip), vehicle: Klucel (hydroxypropylcellulose) (HPC)
  T/C: 267 % of control and 270 % of control
dose: 75.0 mg/kg/injection, schedule: Q01DX005 (ip), vehicle: Klucel (hydroxypropylcellulose) (HPC)
  T/C: 207 % of control and 588 % of control

## CCCCC(CC)C(=O)NCCCN(C)C (configuration not stated)
dose: 50.0 mg/kg/injection, schedule: Q01DX005 (ip), vehicle: saline
  T/C: 99 % of control
dose: 100.0 mg/kg/injection, schedule: Q01DX005 (ip), vehicle: saline
  T/C: 99 % of control
dose: 200.0 mg/kg/injection, schedule: Q01DX005 (ip), vehicle: saline
  T/C: 94 % of control

## CCCCC/C(C=C(C#N)C#N)=C/c1ccccc1
[12]
  T/C: 103 % of control and 86 % of control
[13]
  T/C: 100 % of control and 123 % of control and 91 % of control
[14]
  T/C: 119 % of control and 92 % of control
[15]
  T/C: 111 % of control

## Cc1cc2c(cc1C)C(=O)c1c(C)ccc(C)c1C2=O
[16]
  T/C: 99 % of control
[17]
  T/C: 99 % of control
[18]
  T/C: 86 % of control and 89 % of control

## COSc1ccc([N+](=O)[O-])cc1[N+](=O)[O-]
dose: 12.5 mg/kg/injection, schedule: Q01DX009 (ip), vehicle: saline with Tween-80
  T/C: 95 % of control
[12]
  T/C: 96 % of control
[19]
  T/C: 98 % of control
[13]
  T/C: 103 % of control
[20]
  T/C: 102 % of control
[14]
  T/C: 103 % of control
[21]
  T/C: 108 % of control
[22]
  T/C: 111 % of control

## CCCCCCCCCC(=O)C1C(c2ccccc2)CC(=O)C(CCCCCCCC)C1c1ccccc1 (configuration not stated)
[16]
  T/C: 87 % of control
[17]
  T/C: 98 % of control
[18]
  T/C: 109 % of control and 93 % of control
[23]
  T/C: 105 % of control
[24]
  T/C: 115 % of control

## O=C(O)CSCc1cc2c3ccccc3sc2c2ccccc12
[1]
  T/C: 100 % of control
[2]
  T/C: 93 % of control
[3]
  T/C: 96 % of control

## O=[N+]([O-])c1cnc(/C=[N+](\[O-])C2CCCCC2)n1CCO
[20]
  T/C: 98 % of control
[21]
  T/C: 100 % of control
[22]
  T/C: 102 % of control

## COc1cc([N+](=O)[O-])c(S(=O)(=O)O)cc1N=N/C(=N/Nc1cc(S(=O)(=O)O)c([N+](=O)[O-])cc1OC)C(=O)Nc1ccccc1
dose: 50.0 mg/kg/injection, schedule: Q01DX005 (ip), vehicle: Klucel (hydroxypropylcellulose) (HPC)
  T/C: 95 % of control
dose: 100.0 mg/kg/injection, schedule: Q01DX005 (ip), vehicle: Klucel (hydroxypropylcellulose) (HPC)
  T/C: 93 % of control

## Nc1nc(N)c2c(n1)CCC(C(=O)Nc1ccc(Cl)cc1)C2 (configuration not stated)
[18]
  T/C: 94 % of control
[23]
  T/C: 96 % of control
[24]
  T/C: 96 % of control

## O=C(C[n+]1ccccc1Br)c1cccc([N+](=O)[O-])c1
dose: 6.25 mg/kg/injection, schedule: Q01DX009 (ip), vehicle: saline
  T/C: 103 % of control
dose: 12.5 mg/kg/injection, schedule: Q01DX009 (ip), vehicle: saline
  T/C: 107 % of control
[19]
  T/C: 99 % of control
[20]
  T/C: 103 % of control

## COc1ccc(C(CC(=O)NCCCl)CC(=O)NCCCl)cc1
dose: 100.0 mg/kg/injection, schedule: Q01DX001 (ip), vehicle: suspension in saline
  T/C: 101 % of control
dose: 200.0 mg/kg/injection, schedule: Q01DX001 (ip), vehicle: suspension in saline
  T/C: 100 % of control

## Cc1oc(-c2ccccc2F)nc1C(N)=O
[13]
  T/C: 96 % of control
[14]
  T/C: 95 % of control
[15]
  T/C: 91 % of control

## Cc1ccc2c(c1)sc(C)[n+]2CCO
[4]
  T/C: 100 % of control
[5]
  T/C: 101 % of control
[6]
  T/C: 101 % of control

## CN(N=O)C(=O)Nc1ccc(C(=O)O)cc1
[12]
  T/C: 181 % of control
dose: 25.0 mg/kg/injection, schedule: Q04DX003 (ip), vehicle: saline with Tween-80
  T/C: 155 % of control
[13]
  T/C: 181 % of control
dose: 50.0 mg/kg/injection, schedule: Q04DX003 (ip), vehicle: saline with Tween-80
  T/C: 180 % of control
dose: 66.0 mg/kg/injection, schedule: Q04DX003 (ip), vehicle: saline with Tween-80
  T/C: 159 % of control
dose: 100.0 mg/kg/injection, schedule: Q04DX003 (ip), vehicle: saline with Tween-80
  T/C: 172 % of control and 200 % of control

## [Cl][Sn]([CH2][Sn]([Cl])([c]1ccccc1)[c]1ccccc1)([c]1ccccc1)[c]1ccccc1
dose: 0.39 mg/kg/injection, schedule: Q01DX005 (ip), vehicle: Klucel (hydroxypropylcellulose) (HPC)
  T/C: 103 % of control
dose: 0.79 mg/kg/injection, schedule: Q01DX005 (ip), vehicle: Klucel (hydroxypropylcellulose) (HPC)
  T/C: 104 % of control
dose: 1.56 mg/kg/injection, schedule: Q01DX005 (ip), vehicle: Klucel (hydroxypropylcellulose) (HPC)
  T/C: 106 % of control
[10]
  T/C: 97 % of control
[11]
  T/C: 116 % of control
